One data set deals with IL-6 secretion. Kind of data set: Bradykinin B1 receptor agonist-induced secretion of IL-6 in human IMR-90 cells. The class given is cell-based. Particulars: IMR-90 cells stimulated with 0.1 μM Lys-[Des-Arg9]Bradykinin and 0.1 μM Sar-[D-Phe8]-des-Arg9-Bradykinin for 5 hours. The source says: (§1) Inhibitory Activity on Bradykinin B1 Receptor Agonist-Induced Secretion of IL-6 and IL-8 in Human IMR-90 Cells
(§2) The effect of the example compounds on cytokine secretion has been investigated in the human fetal lung fibroblast IMR-90 cell line. Here the induction of the cytokine secretion was induced by the Bradykinin B1 receptor agonists Lys-[Des-Arg9]Bradykinin and Sar-[D-Phe8]-des-Arg9-Bradykinin leading to the activation of the Bradykinin B1 receptor-driven signaling pathway.
(§3) IMR-90 cells were cultured in Eagle's Minimum Essential Medium (EMEM) containing 2 mM L-glutamine, 1 g/L glucose, 1.5 g/L NaHCO3, 1 mM sodium pyruvate and non-essential amino acids (ATCC, 30-2003™) supplemented with 10% FBS (Biochrom, S0615) and 50 U/mL Penicillin, 50 μg/mL Streptomycin (PAA, P11-010). The assay was performed in EMEM and a cell density of […] IMR-90 cells/96-well. The example compounds have been serial diluted in 100% DMSO and evaluated at 8 different concentrations within the range of 3 nM and 10 μM and a final DMSO concentration of 0.4%. […] The amount of IL-6 and IL-8 in the supernatant was determined using the Human Prolnflammatory 9-Plex (MSD, K15007B) according to manufacturer's instruction. The cell viability was measured using the CellTiter-Glo Luminescent Assay (Promega, G7571) following the manufacturers protocol. […]

The next data set has as its target T1, human B1 receptor (Homo sapiens, UniProt P46663).
T1 construct: host or cells: CHO-K1
T1 sequence (P46663 1-353): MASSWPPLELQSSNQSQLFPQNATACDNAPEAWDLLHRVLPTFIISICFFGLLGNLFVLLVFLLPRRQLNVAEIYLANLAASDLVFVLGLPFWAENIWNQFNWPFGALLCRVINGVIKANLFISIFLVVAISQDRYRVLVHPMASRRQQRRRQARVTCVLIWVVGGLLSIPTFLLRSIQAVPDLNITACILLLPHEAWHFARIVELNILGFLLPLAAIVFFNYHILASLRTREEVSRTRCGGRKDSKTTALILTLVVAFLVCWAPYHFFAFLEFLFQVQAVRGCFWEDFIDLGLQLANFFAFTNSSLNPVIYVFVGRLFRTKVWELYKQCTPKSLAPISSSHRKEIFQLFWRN
Kind of data set: Calcium flux assay (FLIPR) with recombinant CHO-K1 cells expressing human B1 receptor. The class given is cell-based. In short, it runs like this: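 Indicator-loaded CHO-K1 cells expressing human B1 receptor were pre-incubated with compound (8 concentrations, triplicate, 1% DMSO) for 30 min at 28° C, in assay buffer with or without 0.1% BSA (hB1 IC50 vs free IC50). They were then challenged with Lys-(Des-Arg)-bradykinin from plates at 3.5×EC90, with peak FLIPR fluorescence read at 538 nm. IC50 was fitted from % response between DMSO and full block by 20 μM Lys-(Des-Arg-Leu)-bradykinin.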

For another data set, the system named is IMR-90 cells. Briefly: Cell viability of stimulated IMR-90 cells (CellTiter-Glo). The class given is cell-based, human. On the procedure:
IMR-90 cells were cultured in Eagle's Minimum Essential Medium (EMEM) containing 2 mM L-glutamine, 1 g/L glucose, 1.5 g/L NaHCO3, 1 mM sodium pyruvate and non-essential amino acids (ATCC, 30-2003™) supplemented with 10% FBS (Biochrom, S0615) and 50 U/mL Penicillin, 50 μg/mL Streptomycin (PAA, P11-010). The assay was performed in EMEM and a cell density of […] IMR-90 cells/96-well. The example compounds have been serial diluted in 100% DMSO and evaluated at 8 different concentrations within the range of 3 nM and 10 μM and a final DMSO concentration of 0.4%. The IMR-90 cells have been incubated with the respective concentration of the example compound for 30 min. The enhanced secretion of IL-6 and IL-8 was induced by the stimulation of these cells with 0.1 μM Lys-[Des-Arg9]Bradykinin (Tocris, 3225) and 0.1 μM Sar-[D-Phe8]-des-Arg9-Bradykinin (Tocris, 3230) for 5 hours at 37° C. and 5% CO2. Further, cells have been treated with Lys-[Des-Arg9] Bradykinin and Sar-[D-Phe8]-des-Arg9-Bradykinin as neutral control and with 0.1% DMSO as inhibitor control. The amount of IL-6 and IL-8 in the supernatant was determined using the Human Prolnflammatory 9-Plex (MSD, K15007B) according to manufacturer's instruction. The cell viability was measured using the CellTiter-Glo Luminescent Assay (Promega, G7571) following the manufacturers protocol.
Background: Cellular ATP, detected with luciferase, serves as a proxy for viable cell number.

For another data set, the system named is IL-8 secretion. Briefly: Bradykinin B1 receptor agonist-induced secretion of IL-8 in human IMR-90 cells. The class given is cell-based. Particulars: IMR-90 cells stimulated with 0.1 μM Lys-[Des-Arg9]Bradykinin and 0.1 μM Sar-[D-Phe8]-des-Arg9-Bradykinin for 5 hours.
Description: as §1, §2, §3

Where two headings read alike, the source gives them in different places.

The values that follow come from patent US20190194148A1, “TETRAZOLE-CONTAINING 1,2-CYCLOPROPANE-CARBOXAMIDES” (Bayer Pharma Aktiengesellschaft, priority 2017, published 2019).

Usually IC50 stands for the concentration that gives 50% inhibition.

As for `CC(C)(C)c1cn(-c2ccc(NC(=O)C3CC3c3ccc(Cl)cc3)cc2-c2nnn[nH]2)cn1` (racemic) [Example 48, N-[4-(4-tert-butyl-1H-imidazol-1-yl)-3-(1H-tetrazol-5-yl)phenyl]-2-(4-chlorophenyl)cyclo-propanecarboxamide], the IC50 stood at 192 nM with IL-6 secretion; 10 nM on human B1 receptor (absence of 0.1% BSA in assay buffer, read-out: hB1 free IC50); 25 nM on human B1 receptor (presence of 0.1% BSA in assay buffer, read-out: hB1 IC50); 164 nM in the data set on IL-8 secretion. The “effect on the cell viability” value in the data set with IMR-90 cells is recorded as “no effect”.
